{"source": "paper PMC12491383", "about": "“Organ and tumour dosimetry of ^177Lu-rhPSMA-10.1, a novel PSMA-targeted therapy: results from a Phase I trial” (European Journal of Nuclear Medicine and Molecular Imaging, 2025)", "experiment": "Image-based effective and biological half-lives (mono-exponential fit to washout phase)", "type": "in vivo, human", "conditions": "all cycles; for Biological Half-life, Tumours / Effective Half-life, Tumours: anatomy-based method", "procedure": "Multi-bed single-photon emission computed tomography (SPECT)/CT was conducted at 3-, 24-, 48- and 168-hours post-^177Lu-rhPSMA-10.1 administration in each treatment cycle for the estimation of organ and tumour absorbed doses in each patient. Prior to commencement of the study, each investigating site was required to complete a calibration of their dose calibrator and SPECT/CT system to ensure harmonised quantification of the imaging data. Quantitative reconstructions and all dosimetry analyses were carried out centrally by an independent dosimetry vendor (Radiopharmaceutical Imaging and Dosimetry LLC, Baltimore, MD).\nAll continuous data are expressed as the mean (standard deviation [SD]) unless otherwise stated. All blood- and image-based pharmacokinetic analyses were conducted in Python and Excel. Effective half-lives for organs and tumours were calculated using a mono-exponential fit to the washout phase of the time–activity data.\nBased on exponential fits to image-derived time–activity washout data in individual tissues (Fig. 5), the biological and effective half-lives of ^177Lu-rhPSMA-10.1 in tumours and normal organs were estimated using the mean data from all patients across all cycles (Supplemental Table S3).\n^aTumour half-life values were derived from the anatomy-based method and averaged across all tumours and cycles (n = 137).", "note": "Values joined by “and” are separate entries in the source; they are usually repeats but may differ in a detail not shown here. Identical values can stand only once."}
{"smiles": "CC(C)(C)[Si](F)(c1ccc(C(=O)NC[C@@H](NC(=O)CN2CCN(CC(=O)[O-])CCN(CC(=O)[O-])CCN(CC(=O)[O-])CC2)C(=O)N[C@H](CCCCNC(=O)CCC(=O)NCCC[C@@H](NC(=O)CC[C@H](NC(=O)N[C@@H](CCC(=O)O)C(=O)O)C(=O)O)C(=O)O)C(=O)O)cc1)C(C)(C)C.[177Lu+3]", "note": "[^177Lu-rhPSMA-10.1]", "values": [{"measurement": "Biological Half-life, Kidneys", "setting": "Mean of 13 patients", "result": 44.9, "unit": "hours"}, {"measurement": "Biological Half-life, Salivary Glands", "setting": "Mean of 13 patients", "result": 64.6, "unit": "hours"}, {"measurement": "Effective Half-life, Kidneys", "setting": "Mean of 13 patients", "result": 33.7, "unit": "h"}, {"measurement": "Effective Half-life, Salivary Glands", "setting": "Mean of 13 patients", "result": 45.4, "unit": "h"}, {"measurement": "Biological Half-life, Tumours", "setting": "Mean of 13 patients", "result": "338 hours and 337.8 hours"}, {"measurement": "Effective Half-life, Tumours", "setting": "Mean of 13 patients", "result": "91.4 h and 91 h"}, {"measurement": "Biological Half-life, Kidneys", "setting": "Patient 1", "result": 123.6, "unit": "hours"}, {"measurement": "Biological Half-life, Salivary Glands", "setting": "Patient 1", "result": 120.2, "unit": "hours"}, {"measurement": "Effective Half-life, Kidneys", "setting": "Patient 1", "result": 69.6, "unit": "h"}, {"measurement": "Effective Half-life, Salivary Glands", "setting": "Patient 1", "result": 68.6, "unit": "h"}, {"measurement": "Biological Half-life, Tumours", "setting": "Patient 1", "result": 1692.5, "unit": "hours"}, {"measurement": "Effective Half-life, Tumours", "setting": "Patient 1", "result": 145.8, "unit": "h"}, {"measurement": "Biological Half-life, Kidneys", "setting": "Patient 2", "result": 52.3, "unit": "hours"}, {"measurement": "Biological Half-life, Salivary Glands", "setting": "Patient 2", "result": 54.2, "unit": "hours"}, {"measurement": "Effective Half-life, Kidneys", "setting": "Patient 2", "result": 39.4, "unit": "h"}, {"measurement": "Effective Half-life, Salivary Glands", "setting": "Patient 2", "result": 40.5, "unit": "h"}, {"measurement": "Biological Half-life, Tumours", "setting": "Patient 2", "result": 68.8, "unit": "hours"}, {"measurement": "Effective Half-life, Tumours", "setting": "Patient 2", "result": 48.1, "unit": "h"}, {"measurement": "Biological Half-life, Kidneys", "setting": "Patient 3", "result": 47.5, "unit": "hours"}, {"measurement": "Biological Half-life, Salivary Glands", "setting": "Patient 3", "result": 67.5, "unit": "hours"}, {"measurement": "Effective Half-life, Kidneys", "setting": "Patient 3", "result": 36.6, "unit": "h"}, {"measurement": "Effective Half-life, Salivary Glands", "setting": "Patient 3", "result": 47.4, "unit": "h"}, {"measurement": "Biological Half-life, Tumours", "setting": "Patient 3", "result": 305.1, "unit": "hours"}, {"measurement": "Effective Half-life, Tumours", "setting": "Patient 3", "result": 104.8, "unit": "h"}, {"measurement": "Biological Half-life, Kidneys", "setting": "Patient 4", "result": 35.9, "unit": "hours"}, {"measurement": "Biological Half-life, Salivary Glands", "setting": "Patient 4", "result": 84.7, "unit": "hours"}, {"measurement": "Effective Half-life, Kidneys", "setting": "Patient 4", "result": 29.3, "unit": "h"}, {"measurement": "Effective Half-life, Salivary Glands", "setting": "Patient 4", "result": 55.3, "unit": "h"}, {"measurement": "Biological Half-life, Tumours", "setting": "Patient 4", "result": 124.9, "unit": "hours"}, {"measurement": "Effective Half-life, Tumours", "setting": "Patient 4", "result": 70.1, "unit": "h"}, {"measurement": "Biological Half-life, Kidneys", "setting": "Patient 5", "result": 34.6, "unit": "hours"}, {"measurement": "Biological Half-life, Salivary Glands", "setting": "Patient 5", "result": 54.0, "unit": "hours"}, {"measurement": "Effective Half-life, Kidneys", "setting": "Patient 5", "result": 28.5, "unit": "h"}, {"measurement": "Effective Half-life, Salivary Glands", "setting": "Patient 5", "result": 40.3, "unit": "h"}, {"measurement": "Biological Half-life, Tumours", "setting": "Patient 5", "result": 168.9, "unit": "hours"}, {"measurement": "Effective Half-life, Tumours", "setting": "Patient 5", "result": 82.1, "unit": "h"}, {"measurement": "Biological Half-life, Kidneys", "setting": "Patient 6", "result": 38.7, "unit": "hours"}, {"measurement": "Biological Half-life, Salivary Glands", "setting": "Patient 6", "result": 61.3, "unit": "hours"}, {"measurement": "Effective Half-life, Kidneys", "setting": "Patient 6", "result": 31.2, "unit": "h"}, {"measurement": "Effective Half-life, Salivary Glands", "setting": "Patient 6", "result": 44.3, "unit": "h"}, {"measurement": "Biological Half-life, Tumours", "setting": "Patient 6", "result": 282.5, "unit": "hours"}, {"measurement": "Effective Half-life, Tumours", "setting": "Patient 6", "result": 102.0, "unit": "h"}, {"measurement": "Biological Half-life, Kidneys", "setting": "Patient 7", "result": 33.9, "unit": "hours"}, {"measurement": "Biological Half-life, Salivary Glands", "setting": "Patient 7", "result": 57.1, "unit": "hours"}, {"measurement": "Effective Half-life, Kidneys", "setting": "Patient 7", "result": 27.9, "unit": "h"}, {"measurement": "Effective Half-life, Salivary Glands", "setting": "Patient 7", "result": 42.1, "unit": "h"}, {"measurement": "Biological Half-life, Tumours", "setting": "Patient 7", "result": 316.6, "unit": "hours"}, {"measurement": "Effective Half-life, Tumours", "setting": "Patient 7", "result": 106.1, "unit": "h"}, {"measurement": "Biological Half-life, Kidneys", "setting": "Patient 8", "result": 34.9, "unit": "hours"}, {"measurement": "Biological Half-life, Salivary Glands", "setting": "Patient 8", "result": 61.5, "unit": "hours"}, {"measurement": "Effective Half-life, Kidneys", "setting": "Patient 8", "result": 28.6, "unit": "h"}, {"measurement": "Effective Half-life, Salivary Glands", "setting": "Patient 8", "result": 44.4, "unit": "h"}, {"measurement": "Biological Half-life, Tumours", "setting": "Patient 8", "result": 611.3, "unit": "hours"}, {"measurement": "Effective Half-life, Tumours", "setting": "Patient 8", "result": 126.6, "unit": "h"}, {"measurement": "Biological Half-life, Kidneys", "setting": "Patient 9", "result": 32.3, "unit": "hours"}, {"measurement": "Biological Half-life, Salivary Glands", "setting": "Patient 9", "result": 47.7, "unit": "hours"}, {"measurement": "Effective Half-life, Kidneys", "setting": "Patient 9", "result": 26.8, "unit": "h"}, {"measurement": "Effective Half-life, Salivary Glands", "setting": "Patient 9", "result": 36.7, "unit": "h"}, {"measurement": "Biological Half-life, Tumours", "setting": "Patient 9", "result": 204.8, "unit": "hours"}, {"measurement": "Effective Half-life, Tumours", "setting": "Patient 9", "result": 89.7, "unit": "h"}, {"measurement": "Biological Half-life, Kidneys", "setting": "Patient 10", "result": 28.7, "unit": "hours"}, {"measurement": "Biological Half-life, Salivary Glands", "setting": "Patient 10", "result": 59.0, "unit": "hours"}, {"measurement": "Effective Half-life, Kidneys", "setting": "Patient 10", "result": 24.3, "unit": "h"}, {"measurement": "Effective Half-life, Salivary Glands", "setting": "Patient 10", "result": 43.1, "unit": "h"}, {"measurement": "Biological Half-life, Tumours", "setting": "Patient 10", "result": 170.2, "unit": "hours"}, {"measurement": "Effective Half-life, Tumours", "setting": "Patient 10", "result": 82.4, "unit": "h"}, {"measurement": "Biological Half-life, Kidneys", "setting": "Patient 11", "result": 35.3, "unit": "hours"}, {"measurement": "Biological Half-life, Salivary Glands", "setting": "Patient 11", "result": 61.7, "unit": "hours"}, {"measurement": "Effective Half-life, Kidneys", "setting": "Patient 11", "result": 28.9, "unit": "h"}, {"measurement": "Effective Half-life, Salivary Glands", "setting": "Patient 11", "result": 44.5, "unit": "h"}, {"measurement": "Biological Half-life, Tumours", "setting": "Patient 11", "result": 148.2, "unit": "hours"}, {"measurement": "Effective Half-life, Tumours", "setting": "Patient 11", "result": 76.8, "unit": "h"}, {"measurement": "Biological Half-life, Kidneys", "setting": "Patient 12", "result": 54.5, "unit": "hours"}, {"measurement": "Biological Half-life, Salivary Glands", "setting": "Patient 12", "result": 53.6, "unit": "hours"}, {"measurement": "Effective Half-life, Kidneys", "setting": "Patient 12", "result": 40.6, "unit": "h"}, {"measurement": "Effective Half-life, Salivary Glands", "setting": "Patient 12", "result": 40.1, "unit": "h"}, {"measurement": "Biological Half-life, Tumours", "setting": "Patient 12", "result": 152.4, "unit": "hours"}, {"measurement": "Effective Half-life, Tumours", "setting": "Patient 12", "result": 78.0, "unit": "h"}, {"measurement": "Biological Half-life, Kidneys", "setting": "Patient 13", "result": 31.6, "unit": "hours"}, {"measurement": "Biological Half-life, Salivary Glands", "setting": "Patient 13", "result": 57.8, "unit": "hours"}, {"measurement": "Effective Half-life, Kidneys", "setting": "Patient 13", "result": 26.4, "unit": "h"}, {"measurement": "Effective Half-life, Salivary Glands", "setting": "Patient 13", "result": 42.4, "unit": "h"}, {"measurement": "Biological Half-life, Tumours", "setting": "Patient 13", "result": 145.7, "unit": "hours"}, {"measurement": "Effective Half-life, Tumours", "setting": "Patient 13", "result": 76.2, "unit": "h"}]}
